Measurements reported in patent US5912232A, “Anti-inflammatory polypeptide antagonists of human I1-8” (Board of Regents of the University of Nebraska, priority 1996, dated 1999).
Where no end group is shown, it is not given here.

Assays:
[1] = system: arachidonic acid induced ear inflammation; assay: arachidonic acid induced ear inflammation in mice (ear thickness/edema); format: in vivo, C57BL/6 female mice; settings: ip 1 hour prior to arachidonic acid; ear thickness 1 hour post challenge; FIGS. 1 and 2
Description: A stock solution of 5 mgml of example 1 was prepared in D-PBS. The Analog 1 consists of 88.1% active peptide and the calculations were adjusted to compensate for the activity of the Analog 1. Serial dilutions were then made resulting in solutions of appropriate doses of Analog 1 in 0.2 ml. The animals were injected ip with 0.2 ml of the appropriate solution 1 hour prior to arachidonic acid application. The study consisted of various dosage groups as well as excipient groups. The animals used for the study were C57BL/6 female mice, which were obtained from Jackson Laboratories (age 8 weeks and weight 15-18 g). The mice were housed in conventional cages, fed pelleted food and given water ad libitum. The arachidonic acid (Sigma Lot #42H7817) was dissolved in methyl alcohol resulting in a final concentration of 2 mg/20 μl. […] One hour post challenge, the test and control ears were measured for thickness using a Mitutoyo No. 7300 gauge caliper. The thickness was recorded in units of 0.001 inches. […] The effect of Analog 1, which is on IL-8 low molecular weight peptide analog residue 6-19 on arachidonic acid induced ear inflammation was evaluated in vivo, according to the methods described in Example II. In this model, the application of arachidonic acid to the pinna of mice induces an immediate PMN-associated erythema and edema which may be measured by change in thickness. […]

[2] = system: neutrophils (PMNs); assay: IL-8 induced Ca release in Fluo-3 loaded neutrophils, flow cytometry; format: cell-based, human; settings: PMNs pre-incubated with analog at 10^-6 M; IL-8 10^-6 M; FIG. 6
Description: Polymorphonuclear leukocytes (≥95% neutrophils, PMNs) were isolated from heparinized (10 μ/ml) blood collected from healthy volunteers. Erythrocytes were removed by 6% dextran sedimentation for 30 minutes at room temperature, and then the supernatant was subjected to Ficoll (Ficoll-Papque, Pharmacia LKB, Uppsala, Sweden) density gradient centrifugation. PMNs were obtained from the pellet. Contaminated erythrocytes were eliminated by one cycle of hypotonic lysis. After an additional washing step the cells were counted and adjusted to a final concentration of 5×10^6 /ml in RPMI 1640 (Gibco, Grand Island, N.Y.).
The loading procedure with Fluo-3 (Molecular Probes, Eugene, Oreg.) was carried out with PMNs suspended at a density of 5×10^6 /ml in fresh RPMI 1640 containing 2.0 μM Fluo-3 AM (prediluted in dimethyl sulfoxide; Sigma Chemicals) in polypropylene tubes (Falcon 2063, Becton Dickinson). We incubated the PMNs for 25 minutes at 37 degrees C in a 5% CO2 incubator. […]
Before addition of the stimuli the fluorescence channel of the FACScan Plus (Becton Dickinson) was adjusted to find the basal fluorescence level of loaded but unstimulated PMNs. The samples were excited by an argon laser at 488 nm and emission was measured at 525 nm (green fluorescence, channel FL1). […] The fluorescence of Fluo-3-loaded cells was measured in arbitrary fluorescence units of mean channel fluorescence (channel FL1). […]

[3] = system: IL-8; assay: activity of IL-8 analog compared to analog 1 (test not specified); design: species or system human; settings: C-terminally truncated (residues 6 to 16)
Description: The biological activity of an analog of the invention is determined by blocking with the analog an activity with naturally occurring IL-8.

| Sequence | EC-50 for blocking edema [1] | block of Ca signal transduction induced by IL-8 [2] | activity compared to analog 1 [3] |
| --- | --- | --- | --- |
| RCQCIKTYSKPFHPK (cysteine pairing not given here) [Analog 1] | ~1 μg/animal | blocked the Ca signal transduction |  |
| RCQCLQTLQGIHPK (cysteine pairing not given here) [Analog 2, Derived from Alpha Chemokine GRO (MGSA); b140 describes it as IL-8 residues 6 to 16] |  |  | slight loss of activity |
